Laboratory results as given in US10829501B2 (BRISTOL-MYERS SQUIBB COMPANY, priority 2016, dated 2020).
Where a name gives a salt, the structure may show the parent alone.
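Also: rho kinase reaction read by separating phosphorylated from unphosphorylated peptide on chip, with inhibition of kinase activity computed per concentration across a dose-response series.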

What follows are compounds tested against ROCK2 (Homo sapiens, UniProt O75116) (assay: ROCK2 kinase inhibition assay (LABCHIP 3000 Reader, FITC peptide substrate)). Conditions: not given.
Sequence of ROCK2 (O75116 whole entry, species assumed): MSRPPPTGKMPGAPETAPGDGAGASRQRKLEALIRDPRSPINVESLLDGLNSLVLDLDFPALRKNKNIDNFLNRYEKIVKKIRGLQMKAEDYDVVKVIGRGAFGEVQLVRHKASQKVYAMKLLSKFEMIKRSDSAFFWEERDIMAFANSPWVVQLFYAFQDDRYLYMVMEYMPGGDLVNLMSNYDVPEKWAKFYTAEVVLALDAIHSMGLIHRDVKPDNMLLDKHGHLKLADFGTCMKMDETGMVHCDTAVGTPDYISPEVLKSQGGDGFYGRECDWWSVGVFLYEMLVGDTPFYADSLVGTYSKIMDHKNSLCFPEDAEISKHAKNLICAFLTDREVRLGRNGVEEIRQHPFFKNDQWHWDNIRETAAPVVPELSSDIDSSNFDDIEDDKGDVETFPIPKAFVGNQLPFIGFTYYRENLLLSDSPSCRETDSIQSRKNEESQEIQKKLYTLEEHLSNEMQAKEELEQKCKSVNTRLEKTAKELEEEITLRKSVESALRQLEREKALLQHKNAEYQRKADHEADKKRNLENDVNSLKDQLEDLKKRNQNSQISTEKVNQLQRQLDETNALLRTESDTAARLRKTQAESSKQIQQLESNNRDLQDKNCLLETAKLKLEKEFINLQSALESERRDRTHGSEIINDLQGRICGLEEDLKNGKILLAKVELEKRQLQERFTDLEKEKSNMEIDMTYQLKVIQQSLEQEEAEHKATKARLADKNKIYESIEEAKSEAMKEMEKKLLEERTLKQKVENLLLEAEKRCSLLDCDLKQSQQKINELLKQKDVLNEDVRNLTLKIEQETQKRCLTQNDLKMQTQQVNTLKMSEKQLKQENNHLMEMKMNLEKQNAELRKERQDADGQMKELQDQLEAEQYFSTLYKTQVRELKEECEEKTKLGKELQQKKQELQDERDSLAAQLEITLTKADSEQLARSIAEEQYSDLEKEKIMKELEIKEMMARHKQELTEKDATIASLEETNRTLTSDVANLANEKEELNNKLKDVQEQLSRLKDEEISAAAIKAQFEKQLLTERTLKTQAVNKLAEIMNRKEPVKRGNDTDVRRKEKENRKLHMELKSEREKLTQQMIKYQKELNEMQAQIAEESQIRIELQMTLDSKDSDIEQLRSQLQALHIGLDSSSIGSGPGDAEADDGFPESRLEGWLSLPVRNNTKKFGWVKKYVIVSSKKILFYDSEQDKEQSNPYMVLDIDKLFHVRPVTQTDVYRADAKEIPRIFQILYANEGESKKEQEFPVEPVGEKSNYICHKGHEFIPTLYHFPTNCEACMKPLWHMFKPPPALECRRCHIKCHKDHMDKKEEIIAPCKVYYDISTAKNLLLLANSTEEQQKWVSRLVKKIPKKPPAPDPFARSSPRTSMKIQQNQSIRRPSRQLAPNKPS
Cc1ncc(-c2ccc3c(C(=O)NC4CC5(C4)CC(Oc4ncccc4C(N)=O)C5)nc(C(F)F)n3c2)s1 [Example 436, N-((aR)-6-((3-carbamoylpyridin-2-yl)oxy)spiro[3.3]heptan-2-yl)-3-(difluoromethyl)-6-(2-methylthiazol-5-yl)imidazo[1,5-a]pyridine-1-carboxamide] was tested, and the IC50 was < 5 nM. Work on CC(C)(C)c1cc(C(=O)N[C@H]2CC3(C2)C[C@H](Oc2ncccc2C(N)=O)C3)n(CC(F)F)n1 (stereo partly drawn) [Example 113, 2-((aR)-6-(3-(tert-butyl)-1-(2,2-difluoroethyl)-1H-pyrazole-5-carboxamido)spiro[3.3]heptan-2-yl)oxy) nicotinamide, trifluoroacetate] yielded an IC50 of 250 to 2500 nM. With NC(=O)c1cccnc1O[C@H]1CC2(C[C@H](NC(=O)c3cnn4cc(OCCCC(F)(F)F)ccc34)C2)C1 (stereo partly drawn) [Example 122, N-((aR)-6-((3-carbamoylpyridin-2-yl)oxy)spiro[3.3]heptan-2-yl)-6-(4,4,4-trifluorobutoxy) pyrazolo[1,5-a]pyridine-3-carboxamide, trifluoroacetate] the IC50 was 5 to 50 nM. In the case of [2H]C([2H])([2H])n1cc(-c2ccc3c(C(=O)N[C@H]4CC5(C4)C[C@H](Oc4ncccc4C(N)=O)C5)nn(C(F)F)c3c2)cn1 (some centres unmarked) [Example 111, 1-(difluoromethyl)-6-[1-(^2H3)methyl-1H-pyrazol-4-yl]-N-[(4s)-6-[(3-carbamoylpyridin-2-yl)oxy]spiro[3.3]heptan-2-yl]-1H-indazole-3-carboxamide, trifluoroacetate], the IC50 is reported as < 5 nM. With Cn1nc(C(=O)N[C@H]2CC3(C2)C[C@H](Oc2ncccc2C(N)=O)C3)cc1OCC(F)F (stereo partly drawn) [Example 95, 2-((aR)-6-(5-(2,2-difluoroethoxy)-1-methyl-1H-pyrazole-3-carboxamido)spiro-[3.3]heptan-2-yl)oxy) nicotinamide, trifluoroacetate] the IC50 was 50 to 250 nM. Compound COc1ccc(C(N)=O)c(O[C@H]2CC3(C[C@H](NC(=O)c4nn(CC(C)(C)O)c5ccc(F)cc45)C3)C2)n1 (stereo partly drawn) [Example 169, N-((aR)-6-((3-carbamoyl-6-methoxypyridin-2-yl)oxy)spiro[3.3]heptan-2-yl)-5-fluoro-1-(2-hydroxy-2-methylpropyl)-1H-indazole-3-carboxamide] has an IC50 of 5 to 50 nM. In the case of NC(=O)c1cccnc1O[C@H]1CC2(C[C@H](NC(=O)c3cnc4cc(OCCN5CCCC5)ccn34)C2)C1 (stereo partly drawn) [Example 325, N-((aR)-6-((3-carbamoylpyridin-2-yl)oxy)spiro[3.3]heptan-2-yl)-7-(2-(pyrrolidin-1-yl)ethoxy)imidazo[1,2-a]pyridine-3-carboxamide], the IC50 is reported as 5 to 50 nM. With COc1ccn2c(C(=O)N[C@H]3CC4(C3)C[C@H](Oc3ncccc3C(N)=O)C4)cnc2c1 (stereo partly drawn) [Example 348, N-((aR)-6-((3-carbamoylpyridin-2-yl)oxy)spiro[3.3]heptan-2-yl)-7-methoxyimidazo[1,2-a]pyridine-3-carboxamide] the IC50 was 50 to 250 nM. For Cc1ccc(C(N)=O)c(OC2CC3(CC(NC(=O)c4cnn5c(C6CC6)c(OCC(C)(C)O)ccc45)C3)C2)c1 (centres unmarked) [Example 217, N-(6-(2-carbamoyl-5-methylphenoxy)spiro[3.3]heptan-2-yl)-7-cyclopropyl-6-(2-hydroxy-2-methylpropoxy)pyrazolo[1,5-a]pyridine-3-carboxamide], the IC50 was < 5 nM. In the case of [H][C@]1(Oc2ncccc2C(N)=O)C[C@@]2(C[C@H](NC(=O)c3cnn4c(C5CC5)c(OCC(C)(C)F)ccc34)C2)C1 (stereo partly drawn) [Example 49, N-((aR)-6-((3-carbamoylpyridin-2-yl)oxy)spiro[3.3]heptan-2-yl)-7-cyclopropyl-6-(2-fluoro-2-methylpropoxy)pyrazolo[1,5-a]pyridine-3-carboxamide], the IC50 is reported as < 5 nM. CS(=O)(=O)CCCOc1ccc2c(C(=O)NC3CC4(C3)CC(Oc3ccccc3C(N)=O)C4)cnn2c1C1CC1 [Example 30, N-[(aR)-6-(2-carbamoylphenoxy)spiro [3.3]heptan-2-yl]-7-cyclopropyl-6-(3-methanesulfonylpropoxy) pyrazolo[1,5-a] pyridine-3-carboxamide] was tested, and the IC50 was < 5 nM. Compound NC(=O)c1cccnc1OC1CC2(CC(NC(=O)c3cnn(-c4cccc(Cl)c4F)c3)C2)C1 (centres unmarked) [Example 393] has an IC50 of 5 to 50 nM. CC(C)(O)Cn1nc(C(=O)N[C@H]2CC3(C2)C[C@H](Oc2ncccc2C(N)=O)C3)c2cc(Br)ccc21 (stereo partly drawn) [Example 93, 5-bromo-N-((aR)-6-((3-carbamoyl-pyridin-2-yl)oxy)spiro[3.3]heptan-2-yl)-1-(2-hydroxy-2-methylpropyl)-1H-indazole-3-carboxamide, trifluoroacetate] gave an IC50 of 5 to 50 nM. Cn1nc(C(=O)N[C@H]2CC3(C2)C[C@H](Oc2ncccc2C(N)=O)C3)c2ccccc21 (some centres unmarked) [Example 66] was tested, and the IC50 was 5 to 50 nM. NC(=O)c1cccnc1O[C@H]1CC2(C[C@H](NC(=O)c3cnc4cc(OC(CF)CF)ccn34)C2)C1 (stereo partly drawn) [Example 332, N-((aR)-6-((3-carbamoylpyridin-2-yl)oxy)spiro[3.3]heptan-2-yl)-7-((1,3-difluoropropan-2-yl)oxy)imidazo[1,2-a]pyridine-3-carboxamide] showed an IC50 of 5 to 50 nM. For [H][C@]1(Oc2ncccc2C(N)=O)C[C@]2(C[C@@H](NC(=O)c3cn4ccc(OCc5ccccc5)cc4n3)C2)C1 (stereo partly drawn) [Example 463, 7-(benzyloxy)-N-((aR)-6-((3-carbamoylpyridin-2-yl)oxy)spiro 3.31 heptan-2-yl)imidazo[1,2-a]pyridine-2-carboxamide, TFA Salt], the IC50 was 50 to 250 nM. In the case of Cn1nccc1-c1cc(C#N)cc(C(=O)N[C@H]2CC3(C2)C[C@H](Oc2ncccc2C(N)=O)C3)c1 (stereo partly drawn) [Example 197, 2-(((aR)-6-(3-cyano-5-(1-methyl-1H-pyrazol-5-yl)benzamido)spiro[3.3]heptan-2-yl)oxy)nicotinamide], the IC50 is reported as 5 to 50 nM. In the case of NC(=O)c1cccnc1O[C@H]1CC2(C[C@H](NC(=O)c3ccn4ccnc4c3)C2)C1 (stereo partly drawn) [Example 71, N-((aR)-6-((3-carbamoylpyridin-2-yl)oxy)spiro[3.3]-heptan-2-yl)imidazo[1,2-a] pyridine-7-carboxamdie, trifluoroacetate], the IC50 is reported as 250 to 2500 nM. CN(C)CCOc1ccc2c(C(=O)N[C@H]3CC4(C3)C[C@H](Oc3ncccc3C(N)=O)C4)cnn2c1 (stereo partly drawn) [Example 80, N-((aR)-6-((3-carbamoylpyridin-2-yl)oxy)spiro[3.3]heptan-2-yl)-6-(2-(dimethylamino)ethoxy) pyrazolo[1,5-a] pyridine-3-carboxamdie, trifluoroacetate] gave an IC50 of 5 to 50 nM. Cc1c(C(=O)NC2CC3(C2)CC(Oc2ncccc2C(N)=O)C3)cnn1-c1cccc(C#N)c1 (centres unmarked) [Example 399] gave an IC50 of 50 to 250 nM. In the case of Cc1c(C(=O)NC2CC3(C2)CC(Oc2ccccc2C(N)=O)C3)cnn1-c1ccccc1 (centres unmarked) [Example 1, N-(6-(2-carbamoylphenoxy)spiro[3.3]heptan-2-yl)-5-methyl-1-phenyl-1H-pyrazole-4-carboxamide], the IC50 is reported as 50 to 250 nM.

Same assay, conditions: read-out: ROCK2 Activity (ROCK2 IC50); 5 μM ATP, 1.5 μM peptide substrate, pH 7.5
In the case of Cc1nn(Cc2ccc(F)cc2)cc1C(=O)NC1CC2(C1)CC(Oc1ncccc1C(N)=O)C2 [Example 382, N-[(aR)2-[(6-{1-[(4-fluorophenyl)methyl]-3-methyl-1H-pyrazole-4-amido}spiro[3.3]heptan-2-yl)oxy]pyridine-3-carboxamide 1 trifluoroacetic acid salt], the IC50 is reported as 5 to 50 nM. With Cn1cc(-c2ccc3c(C(=O)NC4CC5(C4)CC(Oc4ncccc4C(N)=O)C5)nn(CC4(O)CCC4)c3c2)cn1 [Example 405, N-((aR)-6-((3-carbamoylpyridin-2-yl)oxy)spiro[3.3]heptan-2-yl)-1-((1-hydroxycyclobutyl)methyl)-6-(1-methyl-1H-pyrazol-4-yl)-1H-indazole-3-carboxamide, TFA] the IC50 was < 5 nM.
